Literature values in patent US9408853B2, “Iridium/rhodium anti-cancer compounds” (University of Warwick, priority 2010, dated 2016).

Key:
[1] = test system: human ovarian cancer cell line A2780cisR (cisplatin-resistant); conditions: cited from earlier work
[2] = test system: human ovarian cancer cell line A2780; conditions: cited from earlier work

Cc1c(C)c(C)[c-](C)c1C.[Cl-].[Ir+3].c1ccc(-c2nccs2)nc1 [[(η^5-C5Me5)Ir (pyTz)Cl]^+]
activity towards A2780cisR (in words) [1]: inactive | activity towards A2780 (in words) [2]: inactive
